This test relates to E. coli WT-GFP vs G2058-humanized RFP, fluorescence, 24 h. As to the kind of experiment: E. coli strain growth, wild-type against G2058 humanized RFP mutant – G2058 mutant RFP vs wild-type GFP, cherry-pick, two tests, dose response (AID 1035470).
The mark [1] stands for this setting: E. coli WT-GFP vs G2058-humanized RFP mixed culture, total growth OD600, 24 h.
The mark [2] stands for this setting: measured here: G2058 humanized mutant RFP growth.

The structures appear in SMILES notation. Inconclusive results are not listed. Active and inactive are the calls of the source.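 Rule for the calls: active = compound lowering the normal-ribosome reporter at least twice as much as the humanized-ribosome reporter, growth loss under a set limit; inconclusive = no clear call, values can overlap the other calls; inactive = the rest.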 Some results are limits rather than exact numbers.

The term AC50 denotes the midpoint of the concentration-response curve, whichever way the signal moves. In the case of `COC(=O)c1ccc(C(=O)Nc2ccc3nc(-c4ccncc4)[nH]c3c2)cc1`, the AC50 was > 100 µM (inactive). The compound further had an AC50 under setting [1] greater than 100 µM.

Compound `CC(=O)Oc1ccc(N(c2ccccc2)S(=O)(=O)c2ccc(C)cc2)cc1` displayed an AC50 under setting [1] greater than 100 µM.

Consider `Cc1ccc(Oc2ccc(S(=O)(=O)N3CCOCC3)cc2C(N)=O)cc1C`, for which the AC50 was > 100 µM (inactive). The compound further yielded a concentration at half-maximal activity (AC50) under setting [1] greater than 100 µM.

`COc1cccc(C(=O)Nc2nnc(S(=O)(=O)N(C)Cc3ccccc3)s2)c1`: the AC50 was > 100 µM (inactive). The compound also yielded an AC50 under setting [1] greater than 100 µM.

Take `CCOc1ccccc1OCCCC(=O)N1CCN(S(=O)(=O)c2cc(F)ccc2F)CC1`: the AC50 was > 100 µM (inactive).

Turning to `COc1ccc(Cn2c(=O)c3[nH]cnc3n(-c3ccc(C)cc3)c2=O)cc1`, the AC50 is > 100 µM (inactive). This compound also returned an AC50 under setting [1] greater than 100 µM.

As to `CC1CCC2(CC1)SCC(=O)N2c1ccc(F)cc1` (centres undefined), the AC50 is > 100 µM (inactive). The compound further came in with an AC50 under setting [1] greater than 100 µM. This compound returned a concentration at half-maximal activity (AC50) under setting [2] of 35.3 µM.

Turning to `COc1cccc(-c2ccc(NC(=O)C3CCCN(Cc4cnn(C(C)C)c4)C3)cc2)c1` (centres undefined), the AC50 is > 100 µM (inactive).

Consider `COc1ccc(-c2cc(C(=O)N3CCc4ccccc4C3)no2)cc1`, for which the AC50 was > 100 µM (inactive).

Take `CC(C)(Nc1ccccc1)C(=O)c1ccccc1`: under setting [1], the AC50 was greater than 100 µM.

For `Cc1nnn(C23CC4CC(CC(CC(=O)Nc5ccc(C)c(C)c5)(C4)C2)C3)n1`, the AC50 is > 100 µM (inactive). Moreover, under setting [1], the AC50 is greater than 100 µM.

Under setting [2], `O=[N+]([O-])c1ccc(N2CCOCC2)c2c1no[n+]2[O-]` showed an AC50 of 0.638 µM.

Regarding `O=C(CSc1nnc(-c2ccccc2F)n1C1CC1)Nc1cccnc1Cl`, the AC50 was > 100 µM (inactive).

As for `C=CCSc1cc(C)nc2c(-c3ccccc3)c(C)nn12`, the AC50 is > 100 µM (inactive).

As to `Brc1ccccc1Cn1c(-c2cncs2)nc2ccccc21`, the AC50 is > 100 µM (inactive). Under setting [1], this compound returned an AC50 greater than 100 µM. Under setting [2], this compound had an AC50 greater than 100 µM.

For the compound `CCCC(=O)Nc1sc2c(c1C(=O)Nc1ccccn1)CCCC2`, the AC50 was > 100 µM (inactive). The compound further displayed a half-maximal activity concentration (AC50) under setting [1] greater than 100 µM.

In turn, `CC(C)(C)S(=O)(=O)Cc1nc(-c2ccc(Cl)c(Cl)c2)cs1` registered an AC50 under setting [2] of 38.5 µM.

For `O=c1[nH]c(C2CCCN(S(=O)(=O)c3ccccc3Cl)C2)nc2c1nnn2Cc1ccc2c(c1)OCCO2` (centres undefined), the AC50 was > 100 µM (inactive).

In the case of `COc1ccc(CNc2cc([N+](=O)[O-])ccc2OC)cc1`, the AC50 was > 100 µM (inactive). Moreover, the concentration at half-maximal activity (AC50) under setting [1] was greater than 100 µM. Moreover, the concentration at half-maximal activity (AC50) under setting [2] was greater than 100 µM.

`O=C(O)CC(CC(=O)Nc1ccc2ccccc2n1)c1ccccc1` (centres undefined) yielded an AC50 under setting [2] greater than 100 µM.

In the case of `CCOc1ccccc1NC(=O)c1cc(SC)ccc1Cl`, the AC50 was > 100 µM (inactive). Under setting [1], this compound yielded a half-maximal activity concentration (AC50) greater than 100 µM.

As to `O=C(Nc1ccc(Br)cc1)c1cccnc1N1CCCCC1`, the AC50 is > 100 µM (inactive). This compound also showed an AC50 under setting [1] greater than 100 µM.

Consider `COC(=O)CC1COc2ccccc2N1C(=O)c1ccc(Br)cc1` (centres undefined), for which the AC50 is > 100 µM (inactive). In addition, the AC50 under setting [1] is greater than 100 µM.

Regarding `CCN(CC)C(=O)c1sc2nc(-c3ccccc3)ccc2c1N`, the AC50 is > 100 µM (inactive). This compound also registered an AC50 under setting [2] greater than 100 µM.

Regarding `CC(C)NC(=O)N(C)C[C@H]1OCCCC[C@@H](C)Oc2ccc(NC(=O)c3ccccc3)cc2C(=O)N([C@@H](C)CO)C[C@H]1C`, the AC50 is > 100 µM (inactive).

With `CNC(=O)c1cc(C(=O)c2ccc(C(F)(F)F)cc2F)c[nH]1`, the AC50 was > 100 µM (inactive). Moreover, under setting [1], the AC50 was greater than 100 µM.

For the compound `O=C(O)CCn1c(SCc2cccc3ccccc23)nc2ccccc21`, the AC50 was > 100 µM (inactive). This compound also displayed an AC50 under setting [1] greater than 100 µM.

`CCOc1ccc2nc(NC(=O)CSc3nc(SC)ns3)sc2c1`: the AC50 is > 100 µM (inactive). The same compound showed a concentration at half-maximal activity (AC50) under setting [1] greater than 100 µM.

In the case of `COC(=O)c1ccc(CSc2nc3ccccc3s2)o1`, the AC50 under setting [1] was greater than 100 µM.

In the case of `O=C(NCc1ccc2c(c1)OCO2)c1sccc1Br`, the AC50 was > 100 µM (inactive). The half-maximal activity concentration (AC50) under setting [1] was greater than 100 µM.

As to `O=C(COC(=O)Cc1ccccc1F)Nc1ccc(Cl)cn1`, the AC50 was > 100 µM (inactive).

On to `COc1ccc(OC)c(-c2nn(-c3ccccc3)cc2C(=O)N2CCc3ccccc3C2)c1`, for which the half-maximal activity concentration (AC50) under setting [1] is greater than 100 µM.

Consider `CC1CCCCN1CC(O)COCCC12CC3CC(CC(C3)C1)C2` (centres undefined), for which the AC50 is > 100 µM (inactive). The AC50 under setting [1] is greater than 100 µM.

`Cc1cccc(N2CCN(Cc3nc(-c4ccc(F)cc4F)oc3C)CC2)n1`: the AC50 was > 100 µM (inactive). Moreover, under setting [1], the concentration at half-maximal activity (AC50) is greater than 100 µM.

As to `COc1cccc(NC(=O)c2ccc(NCCCN3CCC(C)CC3)c([N+](=O)[O-])c2)c1`, the concentration at half-maximal activity (AC50) under setting [2] was 28.4 µM.

As for `COc1ccc(-c2csc(NC(=O)c3ccoc3C)n2)cc1`, under setting [1], the half-maximal activity concentration (AC50) was greater than 100 µM.

`COc1ccccc1CNC(=O)CN1C(=O)NC(c2ccccc2)(c2ccccc2)C1=O`: the AC50 was > 100 µM (inactive). Further, the AC50 under setting [1] is greater than 100 µM.

With `Cc1cc(C)n2nc(C(=O)Nc3cccc(S(=O)(=O)N(C)c4ccccc4)c3)nc2n1`, the AC50 was > 100 µM (inactive).

`CN(c1ccccc1)S(=O)(=O)c1cccc(NC(=O)CCNC(=O)c2ccc([N+](=O)[O-])cc2)c1`: the AC50 was > 100 µM (inactive).

`COc1cccc(NC(=O)C(C)SCc2ccccc2)c1` (centres undefined) showed an AC50 under setting [1] greater than 100 µM.

`CCOC(=O)c1[nH]c2ccccc2c1NC(=O)c1ccc(Br)o1`: the AC50 is > 100 µM (inactive). Under setting [1], the AC50 is greater than 100 µM.

Take `O=C(CSCc1c(Cl)cccc1Cl)NCc1ccccn1`: the AC50 is > 100 µM (inactive).

`Cc1ccc(-c2nc3ccc(NS(=O)(=O)c4ccccc4)cc3[nH]2)o1`: the AC50 was > 100 µM (inactive).

`COc1ccc(C(=O)N(c2ccccc2)c2nccc3ccccc23)cc1OC`: the AC50 is > 100 µM (inactive).

Consider `C[C@@H]1CN([C@@H](C)CO)C(=O)c2cc(NC(=O)Nc3cccc4ccccc34)ccc2O[C@@H](C)CCCCO[C@H]1CN(C)C(=O)CCCN(C)C`, for which the AC50 is > 100 µM (inactive).

In the case of `CCCCCCC(=O)N1CCCC(c2nc(-c3cccc(OC)c3)no2)C1` (centres undefined), the AC50 is > 100 µM (inactive). The same compound displayed a concentration at half-maximal activity (AC50) under setting [2] greater than 100 µM.

With `C=CCN(c1ccccc1)S(=O)(=O)c1ccc(Cl)c(C(=O)OCC(=O)NCCCN2CCCC2=O)c1`, the AC50 under setting [1] was greater than 100 µM.

For `CCCCCc1nnc(NC(=O)C2COc3ccccc3O2)s1` (centres undefined), the AC50 is > 100 µM (inactive). The concentration at half-maximal activity (AC50) under setting [1] was greater than 100 µM. Moreover, under setting [2], the half-maximal activity concentration (AC50) amounted to 23.2 µM.

Regarding `N#Cc1ccc(C(=O)Nc2ccn(-c3ccccc3)n2)cc1`, the AC50 is > 100 µM (inactive).

On to `Cc1ccc(Cn2cnc3ccccc32)cc1`, for which the AC50 is > 100 µM (inactive).

For `COc1ccc(-n2ccnc2SCC(=O)NCc2ccccc2)c(OC)c1`, the AC50 is > 100 µM (inactive). This compound also returned an AC50 under setting [1] greater than 100 µM.

Consider `CCn1ccnc1CN1CCCC(C(=O)c2ccc3cc(OC)ccc3c2)C1` (centres undefined), for which the AC50 is > 100 µM (inactive). The AC50 under setting [1] is greater than 100 µM.

`COc1ccc(C(=O)CSc2nc3ccccc3n2CC(=O)c2ccccc2)cc1`: the AC50 was > 100 µM (inactive). Under setting [2], this compound showed a half-maximal activity concentration (AC50) greater than 100 µM.

On to `C=CCn1c(SCc2n[nH]c(=S)n2-c2ccccc2)nnc1-c1ccccc1`, for which the AC50 was > 100 µM (inactive). This compound showed a half-maximal activity concentration (AC50) under setting [1] greater than 100 µM.

Take `O=C(C1Cc2ccccc2CN1C(=O)c1ccccc1)N1CCN(c2ccccc2)CC1` (centres undefined): the AC50 was > 100 µM (inactive). This compound also returned a concentration at half-maximal activity (AC50) under setting [1] greater than 100 µM. Further, under setting [2], the AC50 was greater than 100 µM.

`Cn1ccc2cc(-c3ccc4ncnc(NCc5cccs5)c4c3)ccc21` yielded an AC50 under setting [1] greater than 100 µM.

On to `N#Cc1cccc(-c2ccc3c(c2)[C@H]2[C@H](CCN2C(=O)c2ccccc2F)[C@H](CO)N3)c1`, for which the AC50 is > 100 µM (inactive).

In the case of `CCOc1ccc2oc(-c3ccccc3)c(C(=O)N(C)C)c2c1`, the AC50 was > 100 µM (inactive). Also, under setting [1], the half-maximal activity concentration (AC50) was greater than 100 µM.

Take `C[C@H](CO)N1C[C@H](C)[C@H](CN(C)C(=O)Nc2ccc3c(c2)OCO3)Oc2c(NC(=O)Nc3ccccc3)cccc2C1=O`: the AC50 is > 100 µM (inactive).

For the compound `CN(Cc1nnc(-c2ccc(F)cc2)o1)c1ccccc1`, the AC50 was > 100 µM (inactive). For the same compound, the AC50 under setting [1] is greater than 100 µM.

Turning to `COc1ccc(Nc2oc(-c3ccco3)nc2S(=O)(=O)c2ccc(F)cc2)cc1`, the AC50 was 8.11 µM. For the same compound, the AC50 (E. coli WT-GFP vs G2058-humanized RFP mixed culture, OD600 growth, 24 h, test 1) came to 29 µM. This compound also came in with a half-maximal activity concentration (AC50) (measured here: mutant RFP, test 1) of 37.6 µM. Besides, the AC50 (measured here: wild-type GFP, test 1) stood at 4.64 µM.

As to `Nc1ccc(C(=O)OCCc2ccccc2)cc1`, the AC50 is > 100 µM (inactive). Further, the AC50 under setting [2] came out at 45.9 µM.

In the case of `Cc1cc(OCC(=O)N(Cc2ccco2)C2CCS(=O)(=O)C2)ccc1Cl` (centres undefined), the AC50 is > 100 µM (inactive). Under setting [1], this compound gave an AC50 greater than 100 µM.

As to `Cc1cc(-c2ccc(C)c(S(=O)(=O)NCC3CCN(Cc4ccccc4F)CC3)c2)on1`, the AC50 was > 100 µM (inactive). The same compound registered an AC50 under setting [1] greater than 100 µM.

`CCCN1C(=O)C(O)(c2c(C)[nH]c3ccccc23)c2ccccc21` (centres undefined) yielded a half-maximal activity concentration (AC50) under setting [1] greater than 100 µM.

With `Cc1cccc(C)c1-n1nnnc1C1(C)CCC(=O)N1Cc1cccs1` (centres undefined), the AC50 was > 100 µM (inactive).

As to `O=C1CSC(c2cccnc2)N1Cc1ccc(Cl)c(Cl)c1` (centres undefined), the concentration at half-maximal activity (AC50) under setting [1] was greater than 100 µM.

`O=C(CSCc1cnn(-c2ccccc2)c1-n1cccc1)NCc1cccnc1`: the AC50 under setting [1] is greater than 100 µM.

Turning to `Cc1ccc(OCCCC(=O)NC(C)c2ccccc2)c(C)c1` (centres undefined), the AC50 was > 100 µM (inactive).

Under setting [1], `O=C(COC(=O)C1CC2C=CC1C2)NCCc1ccccc1` (centres undefined) registered an AC50 greater than 100 µM.

For `CCOC(=O)C1NN=C(C(=O)c2ccccc2)C1c1ccc(OC)cc1` (centres undefined), under setting [1], the concentration at half-maximal activity (AC50) is greater than 100 µM.

With `Cc1nc(C)c(-c2ccn(S(=O)(=O)c3ccc(Cl)cc3)n2)o1`, the AC50 is > 100 µM (inactive).

Take `CCOC(=O)c1cnc2c(c(C)nn2C)c1Oc1ccc(OC)cc1`: the AC50 is > 100 µM (inactive).

These data come from PubChem BioAssay AID1035470 (Broad Institute, 2014).
